Source: patent US20240246937A1 (MERCK SHARP & DOHME LLC, priority 2021, published 2024)

Molecular target: recombinant IL4I1 (Homo sapiens (Human), UniProt Q96RQ9)
Assay: IL4I1 Enzymatic Assay (Amplex Red/HRP coupled fluorescence detection of H2O2)
Assay type: biochemical
Details: 240 min; recombinant IL4I1, four-hour pre-incubation with compound
Summary of the method: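 Ten-point, 1:3 compound titrations were fitted by four-parameter sigmoidal regression to give EC50. Resorufin fluorescence (544/590 nm) from Amplex Red/HRP-coupled H2O2 detection was read 120 min after adding 1 mM each aromatic amino acid to 1 nM IL4I1, following a 4 h compound pre-incubation in pH 7.0 Hepes buffer.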

recombinant IL4I1, sequence (Q96RQ9 22-567): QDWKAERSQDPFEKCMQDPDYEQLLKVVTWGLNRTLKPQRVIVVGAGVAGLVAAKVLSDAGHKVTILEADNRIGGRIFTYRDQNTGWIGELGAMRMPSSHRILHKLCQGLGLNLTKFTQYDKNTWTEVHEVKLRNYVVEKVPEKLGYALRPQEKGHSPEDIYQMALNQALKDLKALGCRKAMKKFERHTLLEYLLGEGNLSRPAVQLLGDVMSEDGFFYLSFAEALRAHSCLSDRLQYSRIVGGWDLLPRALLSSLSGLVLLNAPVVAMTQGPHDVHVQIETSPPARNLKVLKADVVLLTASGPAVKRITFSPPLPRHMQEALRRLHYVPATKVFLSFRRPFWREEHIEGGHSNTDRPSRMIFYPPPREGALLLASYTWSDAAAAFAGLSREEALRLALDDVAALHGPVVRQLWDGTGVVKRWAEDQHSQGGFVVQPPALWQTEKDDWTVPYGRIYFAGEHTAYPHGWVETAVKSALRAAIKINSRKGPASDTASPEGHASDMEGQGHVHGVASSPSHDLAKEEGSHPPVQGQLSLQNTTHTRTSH

SMILES | EC50
O=C1C(=O)N(C2(CF)CC2)CCN1Cc1cc(-c2ccccc2)no1 [Example 196, 1-(1-(fluoromethyl)cyclopropyl)-4-((3-phenylisoxazol-5-yl)methyl)piperazine-2,3-dione] | 11 nM
O=c1c(=O)n(C2(CF)CC2)ccn1Cc1ccc(-c2ccccn2)cn1 [Example 251, 1-([2,3′-bipyridin]-6′-ylmethyl)-4-(1-(fluoromethyl)cyclopropyl)-1,4-dihydropyrazine-2,3-dione] | 100 nM
O=c1c(=O)n(C23CC(F)(C2)C3)ccn1Cc1ccc(-c2nccs2)nn1 [Example 205, 1-(3-fluorobicyclo[1.1.1]pentan-1-yl)-4-((6-(thiazol-2-yl)pyridazin-3-yl)methyl)-1,4-dihydropyrazine-2,3-dione] | 24 nM
O=c1c(=O)n([C@H]2C[C@H]3C[C@H]3C2)ccn1Cc1ncc(-c2nccs2)cc1F [Example 371, 1-((cis)-bicyclo[3.1.0]hexan-3-yl)-4-((3-fluoro-5-(thiazol-2-yl)pyridin-2-yl)methyl)-1,4-dihydropyrazine-2,3-dione] | 42 nM
O=c1c(=O)n(C2CCC2)ccn1Cc1ccc(-c2ccccc2F)nn1 [Example 49, 1-cyclobutyl-4-((6-(2-fluorophenyl)pyridazin-3-yl)methyl)-1,4-dihydropyrazine-2,3-dione] | 3 nM
O=C1NCCc2ccc(CN3CCN(C4CCCC4)C(=O)C3=O)cc21 [Example 275, 1-cyclopentyl-4-((1-oxo-1,2,3,4-tetrahydroisoquinolin-7-yl)methyl)piperazine-2,3-dione] | 20 nM
O=c1c(=O)n(C2CCC2)ccn1Cc1nnc(-c2ccc(F)cc2)s1 [Example 30, 1-cyclobutyl-4-((5-(4-fluorophenyl)-1,3,4-thiadiazol-2-yl)methyl)-1,4-dihydropyrazine-2,3-dione] | 8 nM
O=c1c(=O)n(C2CCC2)ccn1Cc1cnc(-c2ccccc2)nc1 [Example 130, 1-cyclobutyl-4-((2-phenylpyrimidin-5-yl)methyl)-1,4-dihydropyrazine-2,3-dione] | 5 nM
O=C1C(=O)N(C2CCCC2)CCN1Cc1ncc(-c2cncs2)cn1 [Example 5, 1-cyclopentyl-4-((5-(thiazol-5-yl)pyrimidin-2-yl)methyl)piperazine-2,3-dione] | 50 nM
O=C1C(=O)N(C2CCCC2)CCN1Cc1cnc(-c2ccccc2)c(F)c1 [Example 102, 1-cyclopentyl-4-((5-fluoro-6-phenylpyridin-3-yl)methyl)piperazine-2,3-dione] | 14 nM
CC1(n2ccn(Cc3cc(-c4ccc(F)cc4)no3)c(=O)c2=O)CCC1 [Example 189, 1-((3-(4-fluorophenyl)isoxazol-5-yl)methyl)-4-(1-methylcyclobutyl)-1,4-dihydropyrazine-2,3-dione] | 4 nM
O=c1c(=O)n(C23CC(C2)C3)ccn1Cc1ccc(-c2ccccn2)nn1 [Example 93, 1-(bicyclo[1.1.1]pentan-1-yl)-4-((6-(pyridin-2-yl)pyridazin-3-yl)methyl)-1,4-dihydropyrazine-2,3-dione] | 31 nM
O=C1C(=O)N(C2CCC2)CCN1Cc1nnc(-c2cccc(F)c2)s1 [Example 27, 1-cyclobutyl-4-((5-(3-fluorophenyl)-1,3,4-thiadiazol-2-yl)methyl)piperazine-2,3-dione] | 5 nM
N#CC1(n2ccn(Cc3cn(-c4ccccn4)nn3)c(=O)c2=O)CC1 [Example 258, 1-(2,3-dioxo-4-((1-(pyridin-2-yl)-1H-1,2,3-triazol-4-yl)methyl)-3,4-dihydropyrazin-1(2H)-yl)cyclopropane-1-carbonitrile] | 78 nM
O=C1C(=O)N(C23CC(C2)C3)CCN1Cc1cc(-c2ccc(F)cc2)on1 [Example 418, 1-(bicyclo[1.1.1]pentan-1-yl)-4-((5-(4-fluorophenyl)isoxazol-3-yl)methyl)piperazine-2,3-dione] | 6 nM
O=C1C(=O)N(C2CCCC2)CCN1Cc1ccc2cc[nH]c(=O)c2c1 [Example 272, 1-cyclopentyl-4-((1-oxo-1,2-dihydroisoquinolin-7-yl)methyl)piperazine-2,3-dione] | 35 nM
O=C1C(=O)N(C2CCC2)CCN1Cc1nnc(-c2ccccc2)s1 [Example 135, 1-cyclobutyl-4-((5-phenyl-1,3,4-thiadiazol-2-yl)methyl)piperazine-2,3-dione] | 6 nM
O=C1C(=O)N(C23CC(F)(C2)C3)CCN1Cc1nnc(-c2ccccc2)s1 [Example 294, 1-(3-fluorobicyclo[1.1.1]pentan-1-yl)-4-((5-phenyl-1,3,4-thiadiazol-2-yl)methyl)piperazine-2,3-dione] | 16 nM
O=C1C(=O)N([C@H]2C[C@H]3C[C@H]3C2)CCN1Cc1nnc(-c2cccc(F)c2)s1 [Example 42, 1-((cis)-bicyclo[3.1.0]hexan-3-yl)-4-((5-(3-fluorophenyl)-1,3,4-thiadiazol-2-yl)methyl)piperazine-2,3-dione] | 5 nM
O=c1c(=O)n(C2(CF)CC2)ccn1Cc1ccc(-n2ccnn2)cn1 [Example 261, 1-((5-(1H-1,2,3-triazol-1-yl)pyridin-2-yl)methyl)-4-(1-(fluoromethyl)cyclopropyl)-1,4-dihydropyrazine-2,3-dione] | 178 nM
CC(CN1CCN(C2CCCC2)C(=O)C1=O)c1nnc(-c2ccccc2)s1 (stereo not drawn) [Example 353, 1-cyclopentyl-4-(2-(5-phenyl-1,3,4-thiadiazol-2-yl)propyl)piperazine-2,3-dione] | 11 nM
